Experiment in all cases: Enzyme inhibiting activity of MMPs, fluorogenic peptide substrate
What all share (type): biochemical

Test [1] deals with T1, MMP-9 (Homo sapiens, UniProt P14780).
T1 construct: purchased Calbiochem (EMD/MERCK Biosciences)
The settings on record: substrate MOCAc-Pro-Leu-Gly-Leu-A2Pr(DNP)-Ala-Arg-NH2, fluorescent intensity. The procedure:
(§1) Various human MMPs (MMP-2, MMP-9 and MMP-13) were purchased from Calbiochem (EMD/MERCK Biosciences).
(§2) The enzyme activity of MMPs was measured according to the method described in C. Graham Knight, Frances Willenbrock and Gillian Murphy: A novel coumarin-labelled peptide for sensitive continuous assays of the matrix metalloproteinases: FEBS LETT., 296, (1992), 263-266. As a substrate, MOCAc-Pro-Leu-Gly-Leu-A2Pr(DNP)- Ala-Arg-NH2 (Peptide Institute, Inc. Osaka, Japan) was used, and the following four assays are performed per compound (inhibitor) for measuring the inhibiting activity.
(§3) (A) Substrate (synthetic substrate), enzyme (MMPs), inhibitor
(§4) (B) Substrate (synthetic substrate), inhibitor
(§5) (C) Substrate (synthetic substrate), enzyme (MMPs)
(§6) (D) Substrate (synthetic substrate)
(§7) In each assay, the fluorescent intensity was measured, and inhibition (%) was calculated by the following equation.
(§8) Inhibition (%)=[I−(A−B)/(C−D)]×100
(§9) IC50 indicates a concentration at which inhibition (%) is 50%.

The target of test [2] is T2, MMP-2 (Homo sapiens, UniProt P08253).
T2 construct: purchased Calbiochem (EMD/MERCK Biosciences)
T2 sequence (P08253 110-660): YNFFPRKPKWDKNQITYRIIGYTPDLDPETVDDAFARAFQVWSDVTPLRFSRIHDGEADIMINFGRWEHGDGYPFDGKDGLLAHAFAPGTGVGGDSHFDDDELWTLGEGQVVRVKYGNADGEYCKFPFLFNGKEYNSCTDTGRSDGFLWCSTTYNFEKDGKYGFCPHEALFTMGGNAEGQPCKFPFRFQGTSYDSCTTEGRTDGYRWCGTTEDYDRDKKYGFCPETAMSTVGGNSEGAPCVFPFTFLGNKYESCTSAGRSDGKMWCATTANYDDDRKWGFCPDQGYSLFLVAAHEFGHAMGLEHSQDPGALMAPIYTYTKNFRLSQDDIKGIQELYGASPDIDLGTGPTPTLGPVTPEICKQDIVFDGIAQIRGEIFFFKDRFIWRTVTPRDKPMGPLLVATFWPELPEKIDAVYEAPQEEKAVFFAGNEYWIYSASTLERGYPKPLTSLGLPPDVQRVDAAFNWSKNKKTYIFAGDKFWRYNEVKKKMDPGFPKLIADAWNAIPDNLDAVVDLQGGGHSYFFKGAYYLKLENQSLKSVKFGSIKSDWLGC
As to conditions: substrate MOCAc-Pro-Leu-Gly-Leu-A2Pr(DNP)-Ala-Arg-NH2, fluorescent intensity. Here is the method: as §1, §2, §3, §4, §5, §6, §7, §8, §9

Test [3] has as its target T3, MMP-13 (Homo sapiens, UniProt P45452).
T3 construct: purchased Calbiochem (EMD/MERCK Biosciences)
As to conditions: APMA-activated proenzyme; substrate MOCAc-Pro-Leu-Gly-Leu-A2Pr(DNP)-Ala-Arg-NH2, fluorescent intensity; read-out: IC50 MMP-13. The procedure:
as §1
Since the purchased MMP-13 was Proenzyme, the activated one was used, which was incubated at 37° C. for 2 hours after the successive addition of an assay buffer (containing 50 mM Tris-HCl (pH7.6), 0.3 M NaCl, 10 mM CaCl2, 0.005% Brij35) and APMA (final concentration 1 mM) to the enzyme solution.
as §2, §3, §4, §5, §6, §7, §8, §9

A value given as a limit tells only on which side of the number the result lay.

In general, IC50 refers to the midpoint of a concentration-inhibition curve.

T1 sequence (P14780 94-707): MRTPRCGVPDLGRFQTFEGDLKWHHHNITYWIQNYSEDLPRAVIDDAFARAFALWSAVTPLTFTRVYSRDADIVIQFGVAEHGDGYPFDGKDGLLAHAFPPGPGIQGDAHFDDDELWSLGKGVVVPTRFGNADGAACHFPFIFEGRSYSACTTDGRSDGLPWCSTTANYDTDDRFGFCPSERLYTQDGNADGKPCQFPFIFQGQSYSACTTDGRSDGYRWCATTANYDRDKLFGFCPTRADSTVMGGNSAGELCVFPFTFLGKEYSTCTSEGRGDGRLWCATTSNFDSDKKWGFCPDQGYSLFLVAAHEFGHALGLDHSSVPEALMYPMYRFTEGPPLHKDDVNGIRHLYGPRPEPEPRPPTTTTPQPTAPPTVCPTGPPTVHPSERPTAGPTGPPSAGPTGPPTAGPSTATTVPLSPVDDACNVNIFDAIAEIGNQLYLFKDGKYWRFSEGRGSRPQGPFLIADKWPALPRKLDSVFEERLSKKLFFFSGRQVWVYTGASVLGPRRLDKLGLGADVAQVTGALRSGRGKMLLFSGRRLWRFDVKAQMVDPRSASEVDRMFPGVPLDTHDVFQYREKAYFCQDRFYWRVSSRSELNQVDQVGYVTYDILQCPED

As for `CC(C)[C@H](NS(=O)(=O)N1CCN(c2ccc(C#Cc3ccnc(C(=O)NCc4ccc(Cl)cc4)c3)cc2)CC1)C(=O)O` [III-69, (S)-2-(4-{4-[2-(4-chrolobenzylcarbamoyl)-pyridin-4-ylethynyl]-phenyl}-piperazine-1-sulfonylamino)-3-methylbutanoic acid], the IC50 in test [1] was > 10000 nM; in test [2], > 10000 nM; in test [3], 7 nM.

Regarding `CNC(=O)c1ccc(COc2cccc(-c3csc(C#Cc4ccc(N5CCN(S(=O)(=O)N[C@@H](C(=O)O)C(C)C)CC5)cc4)n3)c2)cc1` [Compound V-79, (R)-3-methyl-2-[4-(4-{4-[3-(4-methylcarbamoylbenzyloxy)-phenyl]-thiazol-2-ylethynyl}-phenyl)-piperazine-1-sulfonylamino]-butanoic acid], the IC50 in test [1] is > 10000 nM; in test [2], > 10000 nM; in test [3] it was 4 nM.

On to `COc1ccc(CNC(=O)c2cc(C#Cc3ccc(N4CCN(S(=O)(=O)N[C@H](C(=O)O)C(C)C)CC4)cc3)ccn2)cc1` [Compound V-34, (5)-2-(4-{4-[2-(4-methoxybenzylcarbamoyl)-pyridin-4-ylethynyl]-phenyl}-piperazine-1-sulfonylamino)-3-methylbutanoic acid], for which the IC50 is > 10000 nM in test [1], 1000 to 10000 nM in test [2] and 5 nM in test [3].

On to `CC(C)[C@@H](NS(=O)(=O)N1CCN(c2ccc(C#Cc3ccc4[nH]c(=O)n(Cc5ccc(F)cc5)c(=O)c4c3)cc2)CC1)C(=O)O` [III-72, (R)-2-(4-{4-[3-(4-fluorobenzyl)-2,4-dioxo-1,2,3,4-tetrahydroquinazolin-6-ylethynyl]-phenyl}-piperazine-1-sulfonylamino)-3-methylbutanoic acid], for which the IC50 in test [1] is > 10000 nM; in test [2], > 10000 nM; in test [3], 21 nM.

On to `Cc1cc(C(=O)NC(C)C)c2cc(C#Cc3ccc(N4CCN(S(=O)(=O)N[C@H](C)C(=O)O)CC4)cc3)ccc2n1` [Compound I-115, (R)-2-{4-[4-(4-isopropylcarbamoyl-2-methylquinolin-6-ylethynyl)-phenyl]-piperazine-1-sulfonylamino}-proponic acid], for which the figures for the half-maximal inhibitory concentration (IC50) in test [1], in test [2] and in test [3] were > 10000 nM, 1000 to 10000 nM and 12 nM, respectively.

As to `CC(C)[C@@H](NS(=O)(=O)N1CCN(c2ccc(C#Cc3ccc4c(c3)c(=O)n(CC#N)c(=O)n4C)cc2)CC1)C(=O)O` [Compound V-68, (R)-2-{4-[4-(3-cyanomethyl-1-methyl-2,4-dioxo-1,2,3,4-tetrahydroquinazolin-6-ylethynyl)-phenyl]-piperazine-1-sulfonylamino}-3-methylbutanoic acid], the IC50 in test [1] is 1000 to 10000 nM; in test [2], 1000 to 10000 nM; in test [3], 5 nM.

Turning to `COCCOc1ccc(C#Cc2ccc(N3CCN(S(=O)(=O)N[C@@H](C(=O)O)C(C)C)CC3)cc2)cc1C(=O)NCC#N` [III-2, (R)-2-(4-{4-[3-(cyanomethylcarbamoyl)-4-(2-methoxyethoxy)-phenylethynyl]-phenyl}-piperazine-1-sulfonylamino)-3-methylbutanoic acid], the 50% inhibitory concentration (IC50) in test [1] was > 10000 nM; in test [2] it was 1000 to 10000 nM; in test [3], 9 nM.

For `CC(C)[C@@H](NS(=O)(=O)N1CCN(c2ccc(C#Cc3ccc4c(c3)c(=O)n(Cc3ccc(F)cc3)c(=O)n4C)cc2)CC1)C(=O)O` [Compound V-60, (R)-2-(4-{4-[3-(4-fluorobenzyl)-1-methyl-2,4-dioxo-1,2,3,4-tetrahydroquinazolin-6-ylethynyl]-phenyl}-piperazine-1-sulfonylamino)-3-methylbutanoic acid], the IC50 in test [1] was > 10000 nM; in test [2], > 10000 nM; in test [3] it was 21 nM.

Consider `CCC(=O)c1cccc2ccc(C#Cc3ccc(N4CCN(S(=O)(=O)N[C@H](C)C(=O)O)CC4)cc3)cc12` [III-86, (R)-2-{4-[4-(8-propionylnaphthalen-2-ylethynyl)-phenyl]-piperazine-1-sulfonylamino}-proponic acid], for which the IC50 was > 10000 nM in test [1], 1000 to 10000 nM in test [2] and 9 nM in test [3].

As to `CC(=O)c1csc2ccc(C#Cc3ccc(N4CCN(S(=O)(=O)N[C@H](C)C(=O)O)CC4)cc3)cc12` [Compound V-56, (R)-2-{4-[4-(3-acetylbenzo[b]thiophen-5-ylethynyl)-phenyl]-piperazine-1-sulfonylamino}-proponic acid], the IC50 in test [1] is > 10000 nM; in test [2], 1000 to 10000 nM; in test [3] it was 16 nM.

With `COCCOc1ccc(C#Cc2ccc(N3CCN(S(=O)(=O)N[C@@H](C(=O)O)C(C)C)CC3)cc2)cc1-c1ncc(CC(=O)NCc2ccccc2)o1` [Compound V-24, (R)-2-(4-{4-[3-[5-(benzylearbamoylmethyl)-oxazol-2-yl]-4-(2-methoxyethoxy)-phenylethynyl]-phenyl}-piperazine-1-sulfonylamino)-3-methylbutanoic acid], the IC50 is > 10000 nM in test [1], > 10000 nM in test [2] and 23 nM in test [3].

As to `CC(C)[C@@H](NS(=O)(=O)N1CCN(c2ccc(C#Cc3ccc4c(c3)C(=O)N(Cc3cccc(F)c3)C(C)(C)N4)cc2)CC1)C(=O)O` [Compound V-74, (R)-2(4-{4-[3-(3-fluorobenzyl)-2,2-dimethyl4-oxo-1,2,3,4-tetrahydroquinazolin-6-ylethynyl]-phenyl}-piperazine-1-sulfonylamino)-3-methylbutanoic acid], the concentration for half-maximal inhibition (IC50) is > 10000 nM in test [1], 1000 to 10000 nM in test [2] and 16 nM in test [3].

Consider `C[C@@H](NS(=O)(=O)N1CCN(c2ccc(C#Cc3nc(-c4cccc(C(=O)NCc5ccccc5)c4)cs3)cc2)CC1)C(=O)O` [Compound V-14, (R)-2-(4-{4-[4-(3-benzylcarbamoylphenyl)-thiazol-2-ylethynyl]-phenyl}-piperazine-1-sulfonylamino)-proponic acid], for which the IC50 in test [1] was > 10000 nM; in test [2], 1000 to 10000 nM; in test [3] it was 6 nM.

As to `C[C@@H](NS(=O)(=O)N1CCN(c2ccc(C#Cc3ccc4c(c3)c(-c3ncco3)cn4C)cc2)CC1)C(=O)O` [III-46, (R)-2-{4-[4-(1-methyl-3-oxazol-2-yl-1H-indol-5-ylethynyl)-phenyl]-piperazine-1-sulfonylamino}-proponic acid], the values for the IC50 in test [1], in test [2] and in test [3] were > 10000 nM, > 10000 nM and 18 nM, respectively.

Take `C[C@@H](NS(=O)(=O)N1CCN(c2ccc(C#Cc3cccc(C(=O)NCc4ccccc4)c3)cc2)CC1)C(=O)O` [Compound I-1, (1)-2-{4-[4-(3-benzylcarbamoylphenylethynyl)-phenyl]-piperazine-1-sulfonylamino}-proponic acid]: the IC50 in test [1] is > 10000 nM; in test [2], 100 to 1000 nM; in test [3], 2.1 nM.

Consider `CC(=O)Nc1cccc(-c2csc(C#Cc3ccc(N4CCN(S(=O)(=O)N[C@@H](C(=O)O)C(C)C)CC4)cc3)n2)c1` [Compound V-86, (R)-2-(4-{4-[4-(3-acetylaminophenyl)-thiazol-2-ylethynyl]-phenyl}-piperazine-1-sulfonylamino)-3-methylbutanoic acid], for which the IC50 in test [1] was > 10000 nM; in test [2], 1000 to 10000 nM; in test [3], 12 nM.

For `CC(C)[C@@H](NS(=O)(=O)N1CCN(c2ccc(C#Cc3ccnc(C(=O)NCc4ccc5c(c4)OCO5)c3)cc2)CC1)C(=O)O` [III-199, (R)-2-[4-(4-{2-[(benzo[1,3]dioxol-5-ylmethyl)-carbamoyl]-pyridin-4-ylethynyl}-phenyl)-piperazine-1-sulfonylamino]-3-methylbutanoic acid], the IC50 in test [1] is > 10000 nM; in test [2], 1000 to 10000 nM; in test [3], 4 nM.

For `CC(C)[C@@H](NS(=O)(=O)N1CCN(c2ccc(C#Cc3ccnc(C(=O)NCc4ccc(N5CCOCC5)cc4)c3)cc2)CC1)C(=O)O`, the IC50 in test [1] is > 10000 nM; in test [2], 1000 to 10000 nM; in test [3] it was 4 nM.
